Measurements from patent publication US20230089073A1 (Carmot Therapeutics, Inc., priority 2021, published 2023).

Tests used:
human GLP-1 receptor = molecular target: T1, human GLP-1 receptor (Homo sapiens, UniProt P43220); experiment: GLP-1R cAMP Assay; assay type: cell-based; details: cAMP accumulation in CHO cells stably overexpressing the human GLP-1 receptor; 30 min treatment; HitHunter cAMP kit; read-out: EC50
T1 construct: expressed in transfected cells
Outline: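 CHO cells stably overexpressing human GLP-1R, 10,000 cells/well, treated with compound in 20-point dose response in triplicate for 30 min. cAMP accumulation read by enzyme-complementation luminescence after lysis and overnight incubation; dose-response curves fitted.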

cynomolgus monkeys = experiment: Intravenous Glucose Tolerance Test (IVGTT) in Cynomolgus Monkeys; assay type: in vivo, cynomolgus monkeys (Macaca fascicularis); details: test article intravenous bolus 1-6 minutes prior to IV glucose 0.5 g/kg, plasma insulin 0-60 minutes, FIG. 1
Protocol: Intravenous Glucose Tolerance Test (IVGTT) in Cynomolgus Monkeys
Aged ([…]) cynomolgus monkeys (Macaca fascicularis; N=4-5/test article) were fasted overnight and anesthetized with ketamine prior to the intravenous glucose tolerance test (IVGTT). The test articles were formulated at 6 mg/mL in vehicle (5% polyethylene glycol 400: 95% (12% (w/v) sulfobutylether-β-cyclodextrin in deionized water) (v/v)]) and administered by intravenous bolus into a peripheral vein 1-6 minutes prior to the IVGTT. The IVGTT was initiated by administration of an IV bolus of glucose (0.5 g/kg as a 50% glucose solution). Blood samples were collected from a peripheral vein 0, 1, 3, 5, 10, 20, 40 and 60 minutes upon completion of the IV bolus glucose injection. The blood samples were collected directly into potassium ethylene diamine tetra-acetic acid tubes and plasma separated by centrifugation at 2,500 g for 10 minutes within 30 minutes of collection. The plasma from all time points was analyzed for insulin concentrations ([…]) using a Cobas e411 Immunology analyzer. Insulin area-under-the-curve (AUC) was calculated using GraphPad Prism software (v 9).

T1 sequence (P43220 24-463): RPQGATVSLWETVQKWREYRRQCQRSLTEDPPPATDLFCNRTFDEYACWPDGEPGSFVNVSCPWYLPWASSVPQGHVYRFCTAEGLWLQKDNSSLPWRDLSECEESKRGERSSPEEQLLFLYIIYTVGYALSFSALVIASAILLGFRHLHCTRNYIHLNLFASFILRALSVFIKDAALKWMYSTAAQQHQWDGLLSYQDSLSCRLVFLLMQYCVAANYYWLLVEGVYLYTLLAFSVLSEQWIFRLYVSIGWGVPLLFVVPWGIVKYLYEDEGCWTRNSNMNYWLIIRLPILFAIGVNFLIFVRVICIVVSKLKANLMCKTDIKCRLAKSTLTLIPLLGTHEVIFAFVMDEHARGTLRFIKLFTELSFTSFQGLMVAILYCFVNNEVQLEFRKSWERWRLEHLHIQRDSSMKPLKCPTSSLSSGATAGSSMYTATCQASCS

EC50 (human GLP-1 receptor) | Structure (SMILES) | insulin AUC (insulin secretion) (cynomolgus monkeys)
< 50 nM | N#Cc1ccc(OCc2cccc(OC3CCN(Cc4nc5c(F)cc(C(=O)O)cc5n4CC4(CF)CC4)CC3)c2)c(F)c1 [Example 300, 2-((4-(3-((4-Cyano-2-fluorophenoxy)methyl)phenoxy)piperidin-1-yl)methyl)-4-fluoro-1-((1-(fluoromethyl)cyclopropyl)methyl)-1H-benzo[d]imidazole-6-carboxylic acid] | –
< 50 nM | O=C(O)c1ccc2nc(CN3CCC(Oc4ccnc(COc5ccc(Cl)cc5Cl)n4)CC3)n(C[C@@H]3CCO3)c2c1 [Example 304, (S)-2-((4-((2-((2,4-Dichlorophenoxy)methyl)pyrimidin-4-yl)oxy)piperidin-1-yl)methyl)-1-(oxetan-2-ylmethyl)-1H-benzo[d]imidazole-6-carboxylic acid] | –
< 50 nM | C[C@H]1C[C@@H](Oc2ccnc(COc3ccc(C#N)cc3F)n2)CCN1Cc1nc2ccc(C(=O)O)cc2n1C[C@@H]1CCO1 [Example 313, 2-(((2S,4S)-4-((2-((4-Cyano-2-fluorophenoxy)methyl)pyrimidin-4-yl)oxy)-2-methylpiperidin-1-yl)methyl)-1-(((S)-oxetan-2-yl)methyl)-1H-benzo[d]imidazole-6-carboxylic acid] | substantial increase
< 50 nM | N#Cc1ccc(OCc2ccc(F)c(OC3CCN(Cc4nc5ccc(C(=O)O)cc5n4C[C@@H]4CCO4)CC3)n2)c(F)c1 [Example 330, (S)-2-((4-((6-((4-Cyano-2-fluorophenoxy)methyl)-3-fluoropyridin-2-yl)oxy)piperidin-1-yl)methyl)-1-(oxetan-2-ylmethyl)-1H-benzo[d]imidazole-6-carboxylic acid] | –
< 50 nM | C[C@H]1C[C@@H](Oc2ccnc(COc3ccc(F)cc3C#N)n2)CCN1Cc1nc2ccc(C(=O)O)cc2n1C[C@@H]1CCO1 [Example 355, 2-(((2S,4S)-4-((2-((2-cyano-4-fluorophenoxy)methyl)pyrimidin-4-yl)oxy)-2-methylpiperidin-1-yl)methyl)-1-(((S)-oxetan-2-yl)methyl)-1H-benzo[d]imidazole-6-carboxylic acid] | substantial increase
< 50 nM | N#Cc1ccc(OCc2cc(OC3CCN(Cc4nc5ccc(C(=O)O)cc5n4C[C@@H]4CCO4)CC3)c(F)cn2)c(F)c1 [Example 367, (S)-2-((4-((2-((4-Cyano-2-fluorophenoxy)methyl)-5-fluoropyridin-4-yl)oxy)piperidin-1-yl)methyl)-1-(oxetan-2-ylmethyl)-1H-benzo[d]imidazole-6-carboxylic acid] | –
< 50 nM | COC1(Cn2c(CN3CCC(Oc4ccnc(COc5ccc(Cl)cc5F)c4)CC3)nc3ccc(C(=O)O)cc32)CC1 [Example 368, 2-((4-((2-((4-Chloro-2-fluorophenoxy)methyl)pyridin-4-yl)oxy)piperidin-1-yl)methyl)-1-((1-methoxycyclopropyl)methyl)-1H-benzo[d]imidazole-6-carboxylic acid] | –
< 50 nM | N#Cc1ccc(OCc2cccc(OC3CCN(Cc4nc5ccc(C(=O)O)nc5n4C[C@@H]4CCO4)CC3)n2)c(F)c1 [Example 372, (S)-2-((4-((6-((4-Cyano-2-fluorophenoxy)methyl)pyridin-2-yl)oxy)piperidin-1-yl)methyl)-3-(oxetan-2-ylmethyl)-3H-imidazo[4,5-b]pyridine-5-carboxylic acid] | –
< 50 nM | O=C(O)c1ccc2nc(CN3CCC(Oc4ccnc(COc5ccc(F)cc5Cl)n4)CC3)n(C[C@H]3CCN3C(=O)c3ccon3)c2c1 [Example 483, (R)-2-((4-((2-((2-Chloro-4-fluorophenoxy)methyl)pyrimidin-4-yl)oxy)piperidin-1-yl)methyl)-1-((1-(isoxazole-3-carbonyl)azetidin-2-yl)methyl)-1H-benzo[d]imidazole-6-carboxylic acid] | –
< 50 nM | N#Cc1ccc(OCc2nccc(OC3CCN(Cc4nc5ncc(C(=O)O)cc5n4C[C@@H]4CCO4)CC3)n2)c(F)c1 [Example 486, (S)-2-((4-((2-((4-Cyano-2-fluorophenoxy)methyl)pyrimidin-4-yl)oxy)piperidin-1-yl)methyl)-1-(oxetan-2-ylmethyl)-1H-imidazo[4,5-b]pyridine-6-carboxylic acid] | –
< 50 nM | N#Cc1ccc(OCc2nccc(O[C@H]3CCN(Cc4nc5ccc(C(=O)O)cc5n4C[C@@H]4CCO4)[C@@H](CF)C3)n2)c(F)c1 [Example 490, 2-(((2R,4S)-4-((2-((4-Cyano-2-fluorophenoxy)methyl)pyrimidin-4-yl)oxy)-2-(fluoromethyl)piperidin-1-yl)methyl)-1-(((S)-oxetan-2-yl)methyl)-1H-benzo[d]imidazole-6-carboxylic acid] | –
< 50 nM | N#Cc1cc(F)c(OCc2nccc(OC3CCN(Cc4nc5ccc(C(=O)O)cc5n4C[C@@H]4CCO4)CC3)n2)cc1F [Example 498, (S)-2-((4-((2-((4-Cyano-2,5-difluorophenoxy)methyl)pyrimidin-4-yl)oxy)piperidin-1-yl)methyl)-1-(oxetan-2-ylmethyl)-1H-benzo[d]imidazole-6-carboxylic acid] | –

The next lines start with the compound.

Structure (SMILES) | EC50 (human GLP-1 receptor) | insulin AUC (insulin secretion) (cynomolgus monkeys)
CCn1cncc1Cn1c(CN2CCC(Oc3ccnc(COc4ccc(Cl)cc4C#N)c3)CC2)nc2ccc(C(=O)O)cc21 [Compound 171, 2-{[4-({2-[(4-chloro-2-cyanophenoxy)methyl]pyridin-4-yl}oxy)piperidin-1-yl]methyl}-1-[(1-ethyl-1H-imidazol-5-yl)methyl]-1H-1,3-benzodiazole-6-carboxylic acid] | < 50 nM | substantial increase
O=C(O)c1ccc2nc(CN3CCC(Oc4ccnc(COc5ccc(F)cc5Cl)n4)CC3)n(C[C@@H]3CCO3)c2c1 [Compound 326] | < 50 nM | substantial increase
O=C(O)c1cc(F)c2nc(CN3CCC(Oc4ccnc(COc5ccc(Cl)cc5F)c4)CC3)n(C[C@@H]3CCO3)c2c1 [Compound 335] | < 50 nM | substantial increase
O=C(O)c1ccc2nc(CN3CCC(Oc4ccnc(COc5ccc(C(F)(F)F)cc5F)n4)CC3)n(C[C@@H]3CCO3)c2c1 [Compound 338] | < 50 nM | substantial increase
CCn1cncc1Cn1c(CN2CCC(Oc3ccnc(COc4ccc(Cl)cc4Cl)c3)CC2)nc2ccc(C(=O)O)cc21 [Example 145, 2-((4-((2-((2,4-Dichlorophenoxy)methyl)pyridin-4-yl)oxy)piperidin-1-yl)methyl)-1-((1-ethyl-1H-imidazol-5-yl)methyl)-1H-benzo[d]imidazole-6-carboxylic acid] | < 50 nM | substantial increase
CCn1cncc1Cn1c(CN2CCC(Oc3ccnc(COc4ccc(Cl)cc4C#N)c3)CC2(C)C)nc2ccc(C(=O)O)cc21 (stereo not shown) [Example 276, 2-((4-((2-((4-Chloro-2-cyanophenoxy)methyl)pyridin-4-yl)oxy)-2,2-dimethylpiperidin-1-yl)methyl)-1-((1-ethyl-1H-imidazol-5-yl)methyl)-1H-benzo[d]imidazole-6-carboxylic acid] | < 50 nM | –
N#Cc1ccc(OCc2cccc(OC3CCN(Cc4nc5ccc(C(=O)O)cc5n4C[C@@H]4CCO4)CC3)n2)c(F)c1 [Example 285, (S)-2-((4-((6-((4-Cyano-2-fluorophenoxy)methyl)pyridin-2-yl)oxy)piperidin-1-yl)methyl)-1-(oxetan-2-ylmethyl)-1H-benzo[d]imidazole-6-carboxylic acid] | < 50 nM | –
O=C(O)c1ccc2nc(CN3CCC(Oc4ccnc(COc5ccc(C(F)F)cc5F)c4)CC3)n(C[C@@H]3CCO3)c2c1 [Example 297, (S)-2-((4-((2-((4-(Difluoromethyl)-2-fluorophenoxy)methyl)pyridin-4-yl)oxy)piperidin-1-yl)methyl)-1-(oxetan-2-ylmethyl)-1H-benzo[d]imidazole-6-carboxylic acid] | < 50 nM | –
O=C(O)c1ccc2nc(CN3CCC(Oc4ccnc(COc5ccc(Cl)cc5CF)c4)CC3)n(C[C@@H]3CCO3)c2c1 [Example 299, (S)-2-((4-((2-((4-Chloro-2-(fluoromethyl)phenoxy)methyl)pyridin-4-yl)oxy)piperidin-1-yl)methyl)-1-(oxetan-2-ylmethyl)-1H-benzo[d]imidazole-6-carboxylic acid] | < 50 nM | –
